Experimental data published in patent US10597388B2, “Pyridazinone herbicides” (FMC CORPORATION, priority 2014, dated 2020).

What was measured:
Assay in all cases: Test D controlled growth environment herbicide test, pre- and postemergence
Type in all cases: in vivo
[1] = tested on: buckwheat, wild (wild buckwheat, Polygonum convolvulus)
In short: (§1)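 Rating is visual, 0–100 scale (100 = complete control), made against untreated plants 14–21 d after treatment in controlled growth conditions. Postemergence sprays went onto 1- to 4-leaf plants in peat medium; preemergence sprays onto silt loam after sowing; formulation included a surfactant.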

[2] = tested on: radish, wild (wild radish, Raphanus raphanistrum)
In short: as §1

[3] = tested on: galium (catchweed bedstraw, Galium aparine)
In short: as §1

[4] = tested on: deadnettle (henbit deadnettle, Lamium amplexicaule)
In short: as §1

[5] = tested on: bluegrass (annual bluegrass, Poa annua)
In short: as §1

[6] = tested on: speedwell (bird's-eye speedwell, Veronica persica)
In short: as §1

[7] = tested on: canarygrass (Phalaris minor)
In short: as §1

[8] = tested on: barley, spring (spring barley, Hordeum vulgare)
In short: as §1

[9] = tested on: field violet (Viola arvensis)
In short: as §1

[10] = tested on: oilseed rape (Brassica napus)
In short: as §1

[11] = tested on: ryegrass, Italian (Italian ryegrass, Lolium multiflorum)
In short: as §1

[12] = tested on: kochia (Kochia scoparia)
In short: as §1

[13] = Postemergence, 31 g ai/ha, scale 0 to 100 (0 no effect, 100 complete control)
[14] = Postemergence, 125 g ai/ha, visual rating on scale 0 (no effect) to 100 (complete control), 14 to 21 d
[15] = Postemergence, 250 g ai/ha, scale 0 to 100 (0 no effect, 100 complete control)
[16] = Preemergence, 62 g ai/ha, scale 0 to 100 (0 no effect, 100 complete control)
[17] = Preemergence, 125 g ai/ha, scale 0 to 100 (0 no effect, 100 complete control)
[18] = Preemergence, 250 g ai/ha, scale 0 to 100, 0 no effect, 100 complete control
[19] = postemergence, 62 g ai/ha, scale 0 to 100, 0 no effect, 100 complete control

Cc1nn(C)c(=O)c(-c2cccc3ccccc23)c1O [Compound 11, 5-hydroxy-2,6-dimethyl-4-(1-naphthalenyl)-3(2H)-pyridazinone]
60: Plant response rating, Buckwheat, Wild [1, 14] | Plant response rating, Radish, Wild [2, 14] | Kochia plant response rating [12, 13]
90: Plant response rating, Galium [3, 14] | Plant response rating, Galium [3, 15] | Plant response rating, Canarygrass [7, 17] | Plant response rating, Canarygrass [7, 18] | Plant response rating, Field Violet [9, 15] | Plant response rating, Ryegrass, Italian [11, 15] | Plant response rating, Ryegrass, Italian [11, 16]
0: Speedwell plant response rating [6, 13] | Plant response rating (scale of 0 to 100), Speedwell ([6]; Preemergence, 31 g ai/ha) | Plant response rating, Barley, Spring [8, 13] | Plant response rating, Barley, Spring [8, 19] | Oilseed Rape plant response rating [10, 13] | Plant response rating, Oilseed Rape [10, 16]
85: Plant response rating, Radish, Wild [2, 15] | Galium plant response rating [3, 13] | Plant response rating, Galium [3, 19] | Plant response rating, Speedwell [6, 17] | Plant response rating (scale of 0 to 100), Field Violet ([9]; Preemergence, 31 g ai/ha) | Plant response rating, Ryegrass, Italian [11, 14] | Plant response rating (scale of 0 to 100), Ryegrass, Italian ([11]; Preemergence, 31 g ai/ha) | Plant response rating, Ryegrass, Italian [11, 19] | Plant response rating, Kochia [12, 14]
50: Radish, Wild plant response rating [2, 13] | Plant response rating, Deadnettle [4, 17]
55: Bluegrass plant response rating [5, 18] | Plant response rating, Canarygrass [7, 15] | Plant response rating, Canarygrass [7, 16] | Plant response rating, Oilseed Rape [10, 15]
40: Plant response rating, Kochia [12, 16]
100: Plant response rating, Galium [3, 17] | Plant response rating, Galium [3, 18] | Plant response rating, Deadnettle [4, 14] | Plant response rating, Deadnettle [4, 15] | Plant response rating, Deadnettle [4, 18] | Plant response rating, Deadnettle [4, 19] | Plant response rating, Speedwell [6, 14] | Plant response rating, Speedwell [6, 15] | Plant response rating, Speedwell [6, 18] | Plant response rating, Speedwell [6, 19] | Plant response rating, Field Violet [9, 16] | Plant response rating, Field Violet [9, 17] | Plant response rating, Field Violet [9, 18] | Plant response rating, Ryegrass, Italian [11, 17] | Plant response rating, Ryegrass, Italian [11, 18] | Plant response rating, Kochia [12, 15]
10: Plant response rating (scale of 0 to 100), Radish, Wild ([2]; Preemergence, 31 g ai/ha) | Plant response rating (scale of 0 to 100), Deadnettle ([4]; Preemergence, 31 g ai/ha) | Plant response rating (scale of 0 to 100), Bluegrass ([5]; Preemergence, 31 g ai/ha) | Canarygrass plant response rating [7, 13] | Plant response rating, Barley, Spring [8, 14] | Plant response rating, Barley, Spring [8, 15] | Plant response rating, Barley, Spring [8, 17] | Plant response rating (scale of 0 to 100), Kochia ([12]; Preemergence, 31 g ai/ha)
70: Plant response rating (scale of 0 to 100), Galium ([3]; Preemergence, 31 g ai/ha)
45: Buckwheat, Wild plant response rating [1, 13] | Plant response rating, Buckwheat, Wild [1, 19] | Plant response rating (scale of 0 to 100), Canarygrass ([7]; Preemergence, 31 g ai/ha)
20: Plant response rating (scale of 0 to 100), Buckwheat, Wild ([1]; Preemergence, 31 g ai/ha) | Plant response rating, Radish, Wild [2, 17] | Plant response rating, Canarygrass [7, 19] | Plant response rating, Oilseed Rape [10, 14]
5: Bluegrass plant response rating [5, 13] | Plant response rating, Bluegrass [5, 14] | Plant response rating, Bluegrass [5, 19] | Plant response rating (scale of 0 to 100), Barley, Spring ([8]; Preemergence, 31 g ai/ha) | Plant response rating, Barley, Spring [8, 16] | Plant response rating (scale of 0 to 100), Oilseed Rape ([10]; Preemergence, 31 g ai/ha) | Plant response rating, Oilseed Rape [10, 17] | Plant response rating, Oilseed Rape [10, 18]
30: Plant response rating, Radish, Wild [2, 19] | Plant response rating, Bluegrass [5, 17] | Plant response rating, Canarygrass [7, 14]
95: Plant response rating, Buckwheat, Wild [1, 15] | Plant response rating, Kochia [12, 18]
80: Plant response rating, Galium [3, 16] | Ryegrass, Italian plant response rating [11, 13]
25: Plant response rating, Buckwheat, Wild [1, 18] | Plant response rating, Radish, Wild [2, 18]
15: Plant response rating, Buckwheat, Wild [1, 16] | Plant response rating, Buckwheat, Wild [1, 17] | Plant response rating, Radish, Wild [2, 16] | Plant response rating, Deadnettle [4, 16] | Plant response rating, Bluegrass [5, 15] | Plant response rating, Bluegrass [5, 16] | Plant response rating, Speedwell [6, 16] | Barley, Spring plant response rating [8, 18] | Plant response rating, Oilseed Rape [10, 19]
75: Deadnettle plant response rating [4, 13] | Plant response rating, Field Violet [9, 14] | Plant response rating, Kochia [12, 17] | Plant response rating, Kochia [12, 19]
65: Field Violet plant response rating [9, 13] | Plant response rating, Field Violet [9, 19]
